According to US20190374628A1, “MUTATED FRAGMENTS OF THE RAS PROTEIN” (Targovax ASA, priority 2015, published 2019):
Several values for one entry are separate records, joined by “and”; a condition that tells them apart may be missing. Equal entries are not always repeated.

Assays:
[1] = tested on: any RAS mutation; details: cited from earlier work
[2] = tested on: T-cells; assay: 3-days T-cell proliferation assay (3H-thymidine) after three rounds of in vitro stimulation of PBMC bulk cultures with RAS peptides; assay type: cell-based, human; details: bulk cultures stimulated three rounds with TG02 + 13R, 10 μM peptide
Description: In this example, Buffy coats were collected from 4 normal human donors (Buffy 1, Buffy 2, Buffy 3, and Buffy 4) and were cultured in vitro. The in vitro PBMCs were stimulated with a single RAS peptide or a mixture of RAS peptides, and T-cell proliferation assays performed.
The procedure must be performed at room temperature until point 5. All handling of cells in the open is done in a vertical laminar flow hood. • 1. Rapidly transfer the vials, each vial with frozen PBMC from a buffy coat (Buffy 1, Buffy 2, Buffy 3, and Buffy 4), to a water bath at 37° C. • 2. Shake the vials manually at regular intervals (approx. 2-3 min.) and remove them from the water bath while some ice is still present. • 3. When all the ice is melted, transfer 1 ml of CellGro DC medium drop-wise to the cell suspension. • 4. Transfer the cell suspension to a 50 ml tube containing 20 ml of CellGro DC medium. • 5. Centrifuge cells at 500G for 5 min at room temperature. • 6. Resuspend the cells in 5 ml CellGro DC medium. • 7. Count the number of viable cells using a Burker chamber or KOVA Galsstic slides and adjust the cell concentration to 2×10^6 cells/ml in complete CellGro DC medium (see recipe). Total cell numbers: Buffy 1-45×10^6, Buffy 2-27.5×10^6, Buffy 3-40.5×10^6, and Buffy 4-40.5×10^6 cells.
b. Bulk cultures for increasing number of RAS peptide reactive T-cells • 1. […]

## paitumumab-FOLFOX4: panitumumab (printed paitumumab) in combination with FOLFOX4 chemotherapy
[1]
  Outcome of treatment in patients having any RAS mutation: may even be harmed

## KLVVVGAGCVGKSALTI (listed as Homo sapiens) [13C, RAS peptide of the peptide mixture having a G13C mutation]
[2]; Donor #3, single replicates
  Counts per minute (CPM), APC + T-cell + 13 C: 27813 CPM and 32522 CPM and 28869 CPM
[2]; Mean Donor #3
  Mean counts per minute (CPM), APC + T-cell + 13 C: 29735 CPM
